Laboratory results: ChEMBL document CHEMBL4507261, “Data for DCP probe A-192621” (2021)

What was measured:
[1] = biological target: Adenosine receptor A2b (Homo sapiens) (UniProt P29275); assay: A2B (h) Eurofins-Cerep binding assay; parameters: ligand concentration 5 nM; details: filed as antagonist, Compound concentration 10.0 uM
[2] = biological target: Translocator protein (Rattus norvegicus) (UniProt P16257); assay: BZD (peripheral) Eurofins-Cerep binding assay; parameters: ligand concentration 0.2 nM; details: filed as antagonist, Compound concentration 10.0 uM
[3] = biological target: D(1A) dopamine receptor (Homo sapiens) (UniProt P21728); assay: D1 (h) Eurofins-Cerep binding assay; parameters: ligand concentration 0.3 nM; details: filed as antagonist, Compound concentration 10.0 uM
[4] = biological target: Kappa-type opioid receptor (Homo sapiens) (UniProt P41145); assay: kappa (h) (KOP) Eurofins-Cerep binding assay; parameters: ligand concentration 0.5 nM; details: filed as agonist, Compound concentration 10.0 uM
[5] = biological target: 5-hydroxytryptamine receptor 2A (Homo sapiens) (UniProt P28223); assay: 5-HT2A (h) Eurofins-Cerep binding assay; parameters: ligand concentration 0.5 nM; details: filed as antagonist, Compound concentration 10.0 uM
[6] = biological target: Androgen receptor (Homo sapiens) (UniProt P10275); assay: AR (h) Eurofins-Cerep binding assay; parameters: ligand concentration 1 nM; details: filed as agonist, Compound concentration 10.0 uM
[7] = biological target: Vasoactive intestinal polypeptide receptor 1 (Homo sapiens) (UniProt P32241); assay: VPAC1 (VIP1) (h) Eurofins-Cerep binding assay; parameters: ligand concentration 0.04 nM; details: filed as agonist, Compound concentration 10.0 uM
[8] = system: Tyrosine-protein kinase ABL1 (Homo sapiens), P00519 [H396P]; details: Compound concentration 1000.0 nM
[9] = system: Tyrosine-protein kinase ABL1 (Homo sapiens), P00519 [Q252H]; details: Compound concentration 1000.0 nM
[10] = biological target: Tyrosine-protein kinase BTK (Homo sapiens) (UniProt Q06187); details: Compound concentration 1000.0 nM
[11] = biological target: Calcium/calmodulin-dependent protein kinase type 1 (Homo sapiens) (UniProt Q14012); details: Compound concentration 1000.0 nM
[12] = biological target: Calcium/calmodulin-dependent protein kinase type II subunit alpha (Homo sapiens) (UniProt Q9UQM7); details: Compound concentration 1000.0 nM
[13] = biological target: Calcium/calmodulin-dependent protein kinase type IV (Homo sapiens) (UniProt Q16566); details: Compound concentration 1000.0 nM
[14] = biological target: Casein kinase I isoform alpha (Homo sapiens) (UniProt P48729); details: Compound concentration 1000.0 nM
[15] = biological target: Casein kinase II subunit alpha (Homo sapiens) (UniProt P68400); details: Compound concentration 1000.0 nM
[16] = biological target: Epidermal growth factor receptor (Homo sapiens) (UniProt P00533); details: Compound concentration 1000.0 nM
[17] = system: Epidermal growth factor receptor (Homo sapiens), P00533 [L858R,T790M]; details: Compound concentration 1000.0 nM
[18] = biological target: Ephrin type-A receptor 8 (Homo sapiens) (UniProt P29322); details: Compound concentration 1000.0 nM
[19] = biological target: Receptor tyrosine-protein kinase erbB-4 (Homo sapiens) (UniProt Q15303); details: Compound concentration 1000.0 nM
[20] = system: Receptor-type tyrosine-protein kinase FLT3 (Homo sapiens), P36888 [D835V]; details: Compound concentration 1000.0 nM
[21] = biological target: Cyclin-G-associated kinase (Homo sapiens) (UniProt O14976); details: Compound concentration 1000.0 nM
[22] = biological target: G protein-coupled receptor kinase 4 (Homo sapiens) (UniProt P32298); details: Compound concentration 1000.0 nM
[23] = biological target: Serine/threonine-protein kinase LATS2 (Homo sapiens) (UniProt Q9NRM7); details: Compound concentration 1000.0 nM
[24] = biological target: LIM domain kinase 2 (Homo sapiens) (UniProt P53671); details: Compound concentration 1000.0 nM
[25] = biological target: Leucine-rich repeat serine/threonine-protein kinase 2 (Homo sapiens) (UniProt Q5S007); details: Compound concentration 1000.0 nM
[26] = biological target: Tyrosine-protein kinase Lyn (Homo sapiens) (UniProt P07948); details: Compound concentration 1000.0 nM
[27] = biological target: Mitogen-activated protein kinase kinase kinase 4 (Homo sapiens) (UniProt Q9Y6R4); details: Compound concentration 1000.0 nM
[28] = biological target: Dual specificity mitogen-activated protein kinase kinase 6 (Homo sapiens) (UniProt P52564); details: Compound concentration 1000.0 nM
[29] = biological target: Myosin-IIIb (Homo sapiens) (UniProt Q8WXR4); details: Compound concentration 1000.0 nM
[30] = biological target: Serine/threonine-protein kinase PAK 4 (Homo sapiens) (UniProt O96013); details: Compound concentration 1000.0 nM
[31] = biological target: Platelet-derived growth factor receptor alpha (Homo sapiens) (UniProt P16234); details: Compound concentration 1000.0 nM
[32] = biological target: Cyclin-dependent kinase 14 (Homo sapiens) (UniProt O94921); details: Compound concentration 1000.0 nM
[33] = system: Phosphatidylinositol 4,5-bisphosphate 3-kinase catalytic subunit alpha isoform (Homo sapiens), P42336 [I800L]; details: Compound concentration 1000.0 nM
[34] = biological target: Serine/threonine-protein kinase pim-3 (Homo sapiens) (UniProt Q86V86); details: Compound concentration 1000.0 nM
[35] = biological target: Phosphatidylinositol 5-phosphate 4-kinase type-2 beta (Homo sapiens) (UniProt P78356); details: Compound concentration 1000.0 nM
[36] = biological target: cAMP-dependent protein kinase catalytic subunit alpha (Homo sapiens) (UniProt P17612); details: Compound concentration 1000.0 nM
[37] = biological target: Protein kinase C eta type (Homo sapiens) (UniProt P24723); details: Compound concentration 1000.0 nM
[38] = biological target: Proto-oncogene tyrosine-protein kinase ROS (Homo sapiens) (UniProt P08922); details: Compound concentration 1000.0 nM
[39] = biological target: Serine/threonine-protein kinase SBK1 (Homo sapiens) (UniProt Q52WX2); details: Compound concentration 1000.0 nM
[40] = biological target: Uncharacterized serine/threonine-protein kinase SBK3 (Homo sapiens) (UniProt P0C264); details: Compound concentration 1000.0 nM
[41] = biological target: SNF-related serine/threonine-protein kinase (Homo sapiens) (UniProt Q9NRH2); details: Compound concentration 1000.0 nM
[42] = biological target: STE20/SPS1-related proline-alanine-rich protein kinase (Homo sapiens) (UniProt Q9UEW8); details: Compound concentration 1000.0 nM
[43] = biological target: Tyrosine-protein kinase SYK (Homo sapiens) (UniProt P43405); details: Compound concentration 1000.0 nM
[44] = biological target: Serine/threonine-protein kinase TAO1 (Homo sapiens) (UniProt Q7L7X3); details: Compound concentration 1000.0 nM
[45] = biological target: Tyrosine-protein kinase ZAP-70 (Homo sapiens) (UniProt P43403); details: Compound concentration 1000.0 nM

Adenosine receptor A2b (Homo sapiens), sequence (P29275 whole entry): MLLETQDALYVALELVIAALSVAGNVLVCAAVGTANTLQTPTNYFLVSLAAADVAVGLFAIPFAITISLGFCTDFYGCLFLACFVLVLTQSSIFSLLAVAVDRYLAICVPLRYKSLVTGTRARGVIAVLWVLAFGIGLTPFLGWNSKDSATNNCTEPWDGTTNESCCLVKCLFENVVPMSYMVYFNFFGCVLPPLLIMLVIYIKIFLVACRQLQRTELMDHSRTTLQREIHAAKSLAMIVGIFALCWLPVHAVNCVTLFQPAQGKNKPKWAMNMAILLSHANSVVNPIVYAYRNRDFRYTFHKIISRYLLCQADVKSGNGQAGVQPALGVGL
5-hydroxytryptamine receptor 2A (Homo sapiens), sequence (P28223 whole entry): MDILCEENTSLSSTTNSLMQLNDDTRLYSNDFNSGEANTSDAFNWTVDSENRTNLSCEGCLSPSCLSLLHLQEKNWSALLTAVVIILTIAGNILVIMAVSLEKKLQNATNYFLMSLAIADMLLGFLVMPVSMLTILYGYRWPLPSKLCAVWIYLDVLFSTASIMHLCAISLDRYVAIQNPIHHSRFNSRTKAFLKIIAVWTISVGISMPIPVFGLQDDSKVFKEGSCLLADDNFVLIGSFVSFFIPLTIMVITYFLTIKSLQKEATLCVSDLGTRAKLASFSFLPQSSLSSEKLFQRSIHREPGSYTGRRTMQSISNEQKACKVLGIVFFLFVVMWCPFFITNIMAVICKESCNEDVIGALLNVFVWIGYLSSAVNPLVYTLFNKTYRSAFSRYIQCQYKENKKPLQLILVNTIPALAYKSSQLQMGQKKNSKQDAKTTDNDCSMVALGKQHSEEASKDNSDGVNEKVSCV
Vasoactive intestinal polypeptide receptor 1 (Homo sapiens), sequence (P32241 whole entry): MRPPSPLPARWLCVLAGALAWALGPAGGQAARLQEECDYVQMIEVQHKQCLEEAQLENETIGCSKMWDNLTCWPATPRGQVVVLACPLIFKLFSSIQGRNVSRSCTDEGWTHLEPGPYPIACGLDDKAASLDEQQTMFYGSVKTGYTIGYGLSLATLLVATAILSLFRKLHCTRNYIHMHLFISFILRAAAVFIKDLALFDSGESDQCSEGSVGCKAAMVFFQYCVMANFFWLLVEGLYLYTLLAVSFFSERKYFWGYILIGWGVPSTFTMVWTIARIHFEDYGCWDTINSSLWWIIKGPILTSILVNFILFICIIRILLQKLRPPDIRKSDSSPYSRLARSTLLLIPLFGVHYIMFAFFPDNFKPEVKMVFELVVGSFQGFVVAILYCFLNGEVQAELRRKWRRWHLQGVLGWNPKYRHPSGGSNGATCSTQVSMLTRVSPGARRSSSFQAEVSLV
Casein kinase II subunit alpha (Homo sapiens), sequence (P68400 whole entry, looked up): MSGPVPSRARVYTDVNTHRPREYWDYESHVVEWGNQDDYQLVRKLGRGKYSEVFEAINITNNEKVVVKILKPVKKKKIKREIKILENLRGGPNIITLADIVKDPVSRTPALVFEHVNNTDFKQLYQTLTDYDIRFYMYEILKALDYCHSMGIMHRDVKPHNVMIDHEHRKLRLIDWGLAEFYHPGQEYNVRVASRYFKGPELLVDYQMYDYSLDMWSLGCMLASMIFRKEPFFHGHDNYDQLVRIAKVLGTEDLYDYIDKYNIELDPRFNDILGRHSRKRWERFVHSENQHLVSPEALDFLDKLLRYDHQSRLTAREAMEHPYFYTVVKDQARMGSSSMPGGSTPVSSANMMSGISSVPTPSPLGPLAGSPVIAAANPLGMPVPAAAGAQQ
Leucine-rich repeat serine/threonine-protein kinase 2 (Homo sapiens), sequence (Q5S007 whole entry): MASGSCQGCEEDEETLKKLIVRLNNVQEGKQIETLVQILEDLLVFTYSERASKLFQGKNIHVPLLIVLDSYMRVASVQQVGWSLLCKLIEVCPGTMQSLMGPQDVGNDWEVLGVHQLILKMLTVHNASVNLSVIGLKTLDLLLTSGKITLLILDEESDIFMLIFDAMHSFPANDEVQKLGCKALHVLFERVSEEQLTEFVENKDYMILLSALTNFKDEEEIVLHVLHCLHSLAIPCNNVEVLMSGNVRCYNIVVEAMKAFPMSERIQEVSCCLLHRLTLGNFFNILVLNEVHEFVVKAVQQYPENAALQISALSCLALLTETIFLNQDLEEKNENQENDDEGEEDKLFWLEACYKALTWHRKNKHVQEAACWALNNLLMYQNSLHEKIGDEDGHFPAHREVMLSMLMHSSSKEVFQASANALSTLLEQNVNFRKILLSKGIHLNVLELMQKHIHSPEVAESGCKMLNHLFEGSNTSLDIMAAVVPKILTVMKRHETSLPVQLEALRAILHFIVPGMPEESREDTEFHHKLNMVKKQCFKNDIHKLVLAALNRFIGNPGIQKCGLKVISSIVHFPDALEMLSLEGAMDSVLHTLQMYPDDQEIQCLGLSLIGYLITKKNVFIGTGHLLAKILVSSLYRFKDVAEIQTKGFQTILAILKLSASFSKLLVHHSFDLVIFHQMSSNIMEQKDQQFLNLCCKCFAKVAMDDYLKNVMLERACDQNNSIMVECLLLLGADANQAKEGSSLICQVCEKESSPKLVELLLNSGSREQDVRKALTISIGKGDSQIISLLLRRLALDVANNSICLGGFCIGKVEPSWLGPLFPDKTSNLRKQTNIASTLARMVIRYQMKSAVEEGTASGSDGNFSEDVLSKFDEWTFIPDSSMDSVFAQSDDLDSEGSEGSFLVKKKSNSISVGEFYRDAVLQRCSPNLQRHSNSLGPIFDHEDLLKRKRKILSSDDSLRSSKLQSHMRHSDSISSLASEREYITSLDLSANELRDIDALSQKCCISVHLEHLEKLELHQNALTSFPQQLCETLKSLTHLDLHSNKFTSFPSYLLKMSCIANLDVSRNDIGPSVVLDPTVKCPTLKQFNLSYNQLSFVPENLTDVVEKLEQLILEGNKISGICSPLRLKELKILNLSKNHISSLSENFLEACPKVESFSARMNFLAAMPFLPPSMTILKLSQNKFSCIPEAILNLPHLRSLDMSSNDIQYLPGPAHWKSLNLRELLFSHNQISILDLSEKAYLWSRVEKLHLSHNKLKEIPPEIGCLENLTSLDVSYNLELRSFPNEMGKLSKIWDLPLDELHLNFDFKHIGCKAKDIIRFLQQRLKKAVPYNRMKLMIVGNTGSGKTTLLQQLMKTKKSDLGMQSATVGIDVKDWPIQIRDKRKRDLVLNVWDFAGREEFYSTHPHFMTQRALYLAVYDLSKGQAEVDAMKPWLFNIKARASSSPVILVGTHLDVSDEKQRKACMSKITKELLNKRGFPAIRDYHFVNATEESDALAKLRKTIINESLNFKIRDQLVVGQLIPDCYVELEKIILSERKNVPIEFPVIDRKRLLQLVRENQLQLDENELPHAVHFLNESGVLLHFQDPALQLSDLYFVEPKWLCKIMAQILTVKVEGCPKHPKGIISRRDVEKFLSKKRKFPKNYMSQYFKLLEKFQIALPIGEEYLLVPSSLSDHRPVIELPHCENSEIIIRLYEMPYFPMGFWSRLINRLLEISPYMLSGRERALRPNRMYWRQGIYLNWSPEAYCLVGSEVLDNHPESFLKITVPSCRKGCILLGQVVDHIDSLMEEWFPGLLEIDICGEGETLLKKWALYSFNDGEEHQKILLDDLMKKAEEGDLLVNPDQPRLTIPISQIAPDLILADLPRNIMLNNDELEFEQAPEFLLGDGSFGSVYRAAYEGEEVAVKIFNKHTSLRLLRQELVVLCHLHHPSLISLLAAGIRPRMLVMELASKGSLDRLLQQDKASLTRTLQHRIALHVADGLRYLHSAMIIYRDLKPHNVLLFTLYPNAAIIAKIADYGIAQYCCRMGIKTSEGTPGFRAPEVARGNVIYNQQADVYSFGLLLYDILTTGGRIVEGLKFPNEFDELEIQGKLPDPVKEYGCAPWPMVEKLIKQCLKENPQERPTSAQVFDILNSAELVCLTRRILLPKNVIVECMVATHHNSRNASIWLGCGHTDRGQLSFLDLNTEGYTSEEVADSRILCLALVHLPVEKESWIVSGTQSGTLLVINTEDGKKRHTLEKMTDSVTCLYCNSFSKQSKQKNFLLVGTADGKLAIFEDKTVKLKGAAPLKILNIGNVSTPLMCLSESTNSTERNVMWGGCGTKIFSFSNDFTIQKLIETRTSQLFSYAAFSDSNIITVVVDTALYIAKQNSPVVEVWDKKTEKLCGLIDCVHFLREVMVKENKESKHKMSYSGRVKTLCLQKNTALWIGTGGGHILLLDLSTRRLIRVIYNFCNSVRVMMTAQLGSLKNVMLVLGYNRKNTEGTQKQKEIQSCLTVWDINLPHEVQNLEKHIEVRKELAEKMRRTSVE
Uncharacterized serine/threonine-protein kinase SBK3 (Homo sapiens), sequence (P0C264 whole entry): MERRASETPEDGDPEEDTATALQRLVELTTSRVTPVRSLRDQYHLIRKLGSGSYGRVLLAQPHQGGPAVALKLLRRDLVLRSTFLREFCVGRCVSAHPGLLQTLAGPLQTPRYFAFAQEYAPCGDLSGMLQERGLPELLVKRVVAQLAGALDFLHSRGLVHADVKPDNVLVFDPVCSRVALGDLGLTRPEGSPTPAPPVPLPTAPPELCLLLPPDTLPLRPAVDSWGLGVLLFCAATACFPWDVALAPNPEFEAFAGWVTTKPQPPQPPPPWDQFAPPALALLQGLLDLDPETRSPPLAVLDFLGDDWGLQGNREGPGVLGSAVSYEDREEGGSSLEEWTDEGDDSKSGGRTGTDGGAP
Translocator protein (Rattus norvegicus), sequence (P16257 whole entry, looked up): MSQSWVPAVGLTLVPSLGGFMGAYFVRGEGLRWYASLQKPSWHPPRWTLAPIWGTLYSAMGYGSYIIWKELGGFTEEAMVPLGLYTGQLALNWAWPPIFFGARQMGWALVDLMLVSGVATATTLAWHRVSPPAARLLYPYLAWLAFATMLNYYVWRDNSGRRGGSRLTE
Dual specificity mitogen-activated protein kinase kinase 6 (Homo sapiens), sequence (P52564 whole entry): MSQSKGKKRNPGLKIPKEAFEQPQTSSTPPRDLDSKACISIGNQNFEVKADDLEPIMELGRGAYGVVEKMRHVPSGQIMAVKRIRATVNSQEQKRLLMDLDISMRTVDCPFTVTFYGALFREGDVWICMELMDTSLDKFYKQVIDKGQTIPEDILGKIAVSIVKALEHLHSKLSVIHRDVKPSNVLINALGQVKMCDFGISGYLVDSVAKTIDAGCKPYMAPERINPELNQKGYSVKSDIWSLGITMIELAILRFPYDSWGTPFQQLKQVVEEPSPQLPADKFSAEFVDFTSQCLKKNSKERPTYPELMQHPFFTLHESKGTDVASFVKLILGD

For `CCCOc1ccc([C@H]2[C@H](C(=O)O)[C@@H](c3ccc4c(c3)OCO4)CN2CC(=O)Nc2c(CC)cccc2CC)cc1` [A-192621], the % Inhibition of Control Specific Binding (Mean n=2) [1] was -6.1%, the % Inhibition of Control Specific Binding (Mean n=2) [2] was 72.1% and the % Inhibition of Control Specific Binding (Mean n=2) [3] was -2.2%. For the same compound, the % Inhibition of Control Specific Binding (Mean n=2) [4] was 31.9%, the % Inhibition of Control Specific Binding (Mean n=2) [5] was 5.5% and the % Inhibition of Control Specific Binding (Mean n=2) [6] was -11.6%. It also gave a % Inhibition of Control Specific Binding (Mean n=2) [7] of -7.7%, a residual activity [8] of 63% and a residual activity [9] of 86%. It also gave a residual activity [10] of 55%, a residual activity [11] of 93% and a residual activity [12] of 90%. For the same compound, the residual activity [13] was 89%, the residual activity [14] was 72% and the residual activity [15] was 69%. For the same compound, the residual activity [16] was 100%, the residual activity [17] was 75% and the residual activity [18] was 98%. It also gave a residual activity [19] of 100%, a residual activity [20] of 88% and a residual activity [21] of 93%. For the same compound, the residual activity [22] was 100%, the residual activity [23] was 97% and the residual activity [24] was 100%. For the same compound, the residual activity [25] was 79%, the residual activity [26] was 90% and the residual activity [27] was 88%. The residual activity [28] was 100%, the residual activity [29] was 66% and the residual activity [30] was 91%. For the same compound, the residual activity [31] was 80%, the residual activity [32] was 100% and the residual activity [33] was 81%. It also gave a residual activity [34] of 88%, a residual activity [35] of 97% and a residual activity [36] of 100%. The residual activity [37] was 100%, the residual activity [38] was 98% and the residual activity [39] was 78%. The residual activity [40] was 94%, the residual activity [41] was 84% and the residual activity [42] was 58%. It also gave a residual activity [43] of 100%, a residual activity [44] of 84% and a residual activity [45] of 50%.
`CCCOc1ccc([C@@H]2[C@@H](C(=O)O)[C@H](c3ccc4c(c3)OCO4)CN2CC(=O)Nc2c(CC)cccc2CC)cc1` [A-1806262] showed a % Inhibition of Control Specific Binding (Mean n=2) [1] of -8.6%, a % Inhibition of Control Specific Binding (Mean n=2) [2] of 54.7% and a % Inhibition of Control Specific Binding (Mean n=2) [3] of -0.2%. It also gave a % Inhibition of Control Specific Binding (Mean n=2) [4] of 54.1%, a % Inhibition of Control Specific Binding (Mean n=2) [5] of -2.9% and a % Inhibition of Control Specific Binding (Mean n=2) [6] of -11.6%. The % Inhibition of Control Specific Binding (Mean n=2) [7] was -1.5%, the residual activity [8] was 89% and the residual activity [9] was 99%. It also gave a residual activity [10] of 72%, a residual activity [11] of 100% and a residual activity [12] of 100%. It also gave a residual activity [13] of 96%, a residual activity [14] of 73% and a residual activity [15] of 100%. The residual activity [16] was 87%, the residual activity [17] was 87% and the residual activity [18] was 97%. It also gave a residual activity [19] of 100%, a residual activity [20] of 62% and a residual activity [21] of 98%. For the same compound, the residual activity [22] was 100%, the residual activity [23] was 100% and the residual activity [24] was 64%. For the same compound, the residual activity [25] was 84%, the residual activity [26] was 96% and the residual activity [27] was 99%. For the same compound, the residual activity [28] was 100%, the residual activity [29] was 52% and the residual activity [30] was 91%. It also gave a residual activity [31] of 76%, a residual activity [32] of 92% and a residual activity [33] of 71%. It also gave a residual activity [34] of 95%, a residual activity [35] of 80% and a residual activity [36] of 100%. It also gave a residual activity [37] of 100%, a residual activity [38] of 90% and a residual activity [39] of 81%. The residual activity [40] was 85%, the residual activity [41] was 87% and the residual activity [42] was 78%. For the same compound, the residual activity [43] was 100%, the residual activity [44] was 100% and the residual activity [45] was 94%.
